# Test results reported in PubChem BioAssay (NCI).
# Several values for one entry are separate records, joined by “and”; a condition that tells them apart may be missing. Equal entries are not always repeated.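 Method: 48-hour compound exposure of cells in 96-well plates, five concentrations, linear interpolation of endpoints. At the GI50, growth is halved. The concentration for full growth arrest is given as TGI.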
# How the values were obtained:
# Assay in all cases: inhibition of tumour cell growth, NCI panel, 48 h
# A498 renal = tested on: A498 renal
# HOP-92 NSCLC = tested on: HOP-92 NSCLC
# IGROV1 ovarian = tested on: IGROV1 ovarian
# K-562 leukemia = tested on: K-562 leukemia
# M14 melanoma = tested on: M14 melanoma
# NCI-H522 lung = tested on: NCI-H522 lung
# NCI/ADR-RES ovarian = tested on: NCI/ADR-RES ovarian
# OVCAR-4 ovarian = tested on: OVCAR-4 ovarian
# SNB-19 CNS = tested on: SNB-19 CNS
# UACC-257 melanoma = tested on: UACC-257 melanoma
SMILES,GI50 (A498 renal),TGI (A498 renal),GI50 (HOP-92 NSCLC),TGI (HOP-92 NSCLC),GI50 (IGROV1 ovarian),TGI (IGROV1 ovarian),GI50 (K-562 leukemia),TGI (K-562 leukemia),GI50 (M14 melanoma),TGI (M14 melanoma),GI50 (NCI-H522 lung),TGI (NCI-H522 lung),GI50 (NCI/ADR-RES ovarian),TGI (NCI/ADR-RES ovarian),GI50 (OVCAR-4 ovarian),TGI (OVCAR-4 ovarian),GI50 (SNB-19 CNS),TGI (SNB-19 CNS),GI50 (UACC-257 melanoma),TGI (UACC-257 melanoma)
COc1ccc(-c2cc(-c3ccc(O)cc3)nc3n[nH]c(N)c23)cc1,16.8 µM,36.6 µM,11.9 µM,28.7 µM,17 µM,52.2 µM,35.3 µM,> 100 µM,21.3 µM,43 µM,14.5 µM,33.6 µM,23.1 µM,51.9 µM,43.3 µM,> 100 µM,33.3 µM,> 100 µM,21.8 µM,56.9 µM
CCN(CC)CCCC(C)N=c1cc(Nc2cc(=NC(C)CCCN(CC)CC)c3cc(OC)ccc3o2)oc2ccc(OC)cc12 (stereo not drawn),1.15 µM,7.83 µM,0.513 µM,3.15 µM,1.89 µM,8.72 µM,1.19 µM,4.76 µM,0.967 µM,1.79 µM,1.04 µM,2.15 µM,2.09 µM,15.3 µM,0.723 µM,1.71 µM,1.99 µM,13 µM,0.872 µM,1.67 µM
CNC(=O)c1cccc2c(Nc3ccc(NS(C)(=O)=O)cc3OC)c3cccc(C)c3nc12,,1.15 µM,,3.67 µM,,13.2 µM,,4.79 µM,,2.63 µM,,2.51 µM,,9.36 µM,,4.35 µM,,5.04 µM,,10.6 µM
N#CS.N=C=S.N=C=S.[Cu+2].[NH2-].[NH2-].[NH2-].[NH2-].c1ccc2ncccc2c1,28.4 µM,51 µM,> 100 µM,> 100 µM,55.7 µM,> 100 µM,> 100 µM,> 100 µM,> 100 µM,> 100 µM,44.8 µM,> 100 µM,> 100 µM,> 100 µM,20.6 µM,43.4 µM,18.1 µM,32.9 µM,> 100 µM,> 100 µM
CC1(C)CCC(C)(C)c2c1ccc(O)c2Cc1c(O)ccc2c1C(C)(C)CCC2(C)C,,3.43 µM,,3.7 µM,,3.68 µM,,5.41 µM,,3.75 µM,,4.04 µM,,4.43 µM,,3.53 µM,,5.4 µM,,3.45 µM
O=C(CCC(C(=O)c1ccccc1)c1ccccc1)c1ccccc1 (stereo not drawn),1.44 µM,58.1 µM,3.4 µM,72.2 µM,32 µM,> 100 µM,3.75 µM,> 100 µM,6.82 µM,> 100 µM,2.64 µM,8.98 µM,4.74 µM,> 100 µM,16.5 µM,> 100 µM,73.8 µM,> 100 µM,17.5 µM,> 100 µM
Cc1ncsc1-c1ccc(CNC(=O)[C@@H]2C[C@@H](O)CN2C(=O)[C@@H](NC(=O)C2(C#N)CC2)C(C)(C)C)cc1,24 µM,> 100 µM,70.4 µM,> 100 µM,> 100 µM,> 100 µM,,,,,> 100 µM,> 100 µM,> 100 µM,> 100 µM,80.7 µM,> 100 µM,> 100 µM,> 100 µM,> 100 µM,> 100 µM
COc1cc(OC)c(NC(=O)c2cc3ccccc3cc2O)cc1Cl,2.15 µM,5.57 µM,1.55 µM,4.89 µM,2.03 µM,11.2 µM,4.42 µM,> 100 µM,3.03 µM,13.1 µM,2.56 µM,6.12 µM,2.63 µM,9.33 µM,3 µM,> 100 µM,4.82 µM,> 100 µM,,
C=C1C(=O)O[C@@H]2C1C[C@@H](O)C(=C)CC/C=C(\C)CCC[C@H](C)[C@H]2OC(C)=O (stereo partly drawn),15.3 µM,29.4 µM,1.09 µM,3.76 µM,5.17 µM,19.5 µM,2.8 µM,7.76 µM,,,3.55 µM,12.7 µM,3.38 µM,14.2 µM,4.65 µM,28 µM,27.1 µM,> 100 µM,16 µM,35.9 µM
CCCCN(CCCC)CCCn1c(=O)c2c3ccccc3n(C)c2n2nnc(-c3ccccc3)c12,42.7 µM,> 100 µM,18.5 µM,44.7 µM,,,13.9 µM,> 100 µM,21.6 µM,> 100 µM,,,14.3 µM,67.7 µM,17.6 µM,83.9 µM,> 100 µM,> 100 µM,28.7 µM,82.5 µM
CN(C)CCOC(c1ccccc1)c1ccccc1,40.9 µM,58.4 µM,,85.7 µM,29.3 µM,46.3 µM and > 100 µM,,> 100 µM,15.3 µM,23.9 µM and > 100 µM,25.6 µM,44.3 µM and > 100 µM,33.1 µM,48.9 µM and > 100 µM,,> 100 µM,,,14.2 µM,19.8 µM and > 100 µM
O=C1OC(c2ccccc2)(c2cc(Br)c(O)c(Br)c2)c2ccccc21 (stereo not drawn),21.1 µM,52 µM,16.6 µM,40.5 µM,33.6 µM,> 100 µM,32.5 µM,> 100 µM,18.6 µM,36.8 µM,,,26 µM,84.3 µM,22.7 µM,78.9 µM,29.7 µM,> 100 µM,35.4 µM,> 100 µM
O=C1c2ccccc2-c2c1c1c(O)cccc1n2-c1ccccc1,,,,0.035 µM,> 100 µM,> 100 µM,> 100 µM,> 100 µM,29.3 µM,> 100 µM,> 100 µM,> 100 µM,> 100 µM,> 100 µM,,> 100 µM,> 100 µM,> 100 µM,> 100 µM,> 100 µM
C=C(C)[C@@H]1CC[C@]2(CO)CC[C@]3(C)[C@H](CC[C@@H]4[C@@]5(C)CCC(NCCc6ccc(O)cc6)C(C)(C)[C@@H]5CC[C@]43C)[C@@H]12 (stereo partly drawn),1.32 µM,2.69 µM,1.46 µM,2.95 µM,,,0.31 µM,1.66 µM,1.6 µM,3.05 µM,1.72 µM,3.33 µM,1.63 µM,3.45 µM,1.7 µM,3.18 µM,,,1.73 µM,3.37 µM
